# Patent US20230265116A1, “DEGRADATION OF (EGFR) BY CONJUGATION OF EGFR INHIBITORS WITH E3 LIGASE LIGAND AND METHODS OF USE” (BEIGENE, LTD., priority 2020, published 2023)
# Read-outs that look alike come from different tables or passages of the source.
# What was measured:
# [1] = biological target: T1, EGFR L858R/T790M/C797S (BaF3-LTC cells) (Homo sapiens, UniProt P00533, C797S/L858R/T790M); experiment: EGFR degradation HTRF assay, BaF3-LTC cells; type: cell-based
# T1 construct: expressed in transfected cells; host or cells: BaF3
# Method: (§1) BaF3 WT(wild type), BaF3-LTC(L858R/T790M/C797S) and BaF3-DTC(Del19/T790M/C797S) cells are treated with compounds diluted in 0.2% DMSO cell culture medium and incubate for 16h, 37° C., 5% CO2, H1975-#36, H1975-#28, H1975-#23 and HCC827 cells are treated with compounds diluted in 0.2% DMSO cell culture medium on day 2, incubate for 16h, 37° C., 5% CO2.the final concentriation of compounds in all assay is start with 10 uM, 5-fold dilution, total 8 doses were included.
# (§2) After 16h treatment, add HTRF lysis buffer to each well; seal the plate and incubate 1 hour at room temperature on a plate shaker; Once the cells are lysed, 16 μL of cell lysate are transferred to a PE 384-well HTRF detection plate; 4 μL of pre-mixed HTRF antibodies are added to each well; Cover the plate with a plate sealer, spin 1000 rpm for 1 min, Incubate overnight at room temperature; Read on BMG PheraStar with HTRF protocol (337 nm-665 nm-620 nm).
# (§3) The inhibition (degradation) percentage of the compound was calculated by the following equation: Inhibition percentage of Compound=100-100×(Signal-low control)/(High control-low control), wherein signal=each test compound group
# (§4) High control=Cell group with added DMSO and without compound, indicating microplate readings without EGFR degradation;
# (§5) Dmax is the maximum percentage of inhibition (degradation).
# (§6) The IC50 (DC50) value of a compound can be obtained by fitting the following equation
# (§7) Y=Bottom+(TOP−Bottom)/(1+((IC50/X)^hillslope))
# (§8) Wherein, X and Y are known values, and IC50, Hillslope, Top and Bottom are the parameters obtained by fitting with software. Y is the inhibition percentage (calculated from the equation), X is the concentration of the compound; IC50 is the concentration of the compound when the 50% inhibition is reached. The smaller the IC50 value is, the stronger the inhibitory ability of the compound is. Vice versa, the higher the IC50 value is, the weaker the inhibitory ability of the compound is; Hillslope represents the slope of the fitted curve, generally around 1*; Bottom represents the minimum value of the curve obtained by data fitting, which is generally 0%±20%; Top represents the maximum value of the curve obtained by data fitting, which is generally 100%±20%. The experimental data were fitted by calculating and analyzing with Dotmatics data analysis software.
# [2] = test system: EGFR Del19/T790M/C797S (H1975-clone #28); experiment: EGFR degradation HTRF assay, H1975-clone #28 DTC cells; type: cell-based
# Method: H1975-clone #28(Del19/T790M/C797S) and H1975-clone #23(Del19/C797S). EGFR-Del19/T790M/C797S and EGFR-Del19/C797S were stably expressed in H1975 cell lines by lentivirus-mediated over-expression, respectively. The EGFR over-expressed cells then underwent gene knockout, in which the EGFR targeting sgRNA was designed to only target the endogenous EGFR copies and preserve the exogenous EGFR copies. Followed by the gene knockout, the edited H1975 cells were seeded in 96 well plates at the concentration of 1 cell/well, cultured for about 2 weeks to allow single clones formation. The formed clones were screened by DNA sequencing and whole exon sequencing analysis for the desired edition. H1975-clone #28 and H1975-clone #23 were finally confirmed as homozygous Del19/T790M/C797S EGFR and Del19/C797S EGFR clones, respectively.
# as §1, §2, §3, §4, §5, §6, §7, §8
# [3] = BaF3-LTC cells; EGFR degradation, IC50 (DC50) from curve fit; read-out: DC50(nM) BaF3-LTC
# [4] = BaF3-LTC cells; maximum percentage of inhibition (degradation); read-out: Dmax (%) BaF3-LTC
# [5] = H1975 # 28 DTC cells; EGFR degradation, IC50 (DC50) from curve fit; read-out: DC50(nM) H1975 # 28 DTC
# [6] = H1975 # 28 DTC cells; maximum percentage of inhibition (degradation)
# [7] = read-out: DC50(nM) BaF3-LTC; BaF3-LTC cells; EGFR degradation, IC50 (DC50) from curve fit
# [8] = read-out: Dmax (%) BaF3-LTC, BaF3-LTC cells; maximum percentage of inhibition (degradation)
# [9] = read-out: DC50(nM) H1975 # 28 DTC; H1975 # 28 DTC cells; EGFR degradation, IC50 (DC50) from curve fit
# T1 sequence (P00533 25-1210 T790M/C797S/L858R): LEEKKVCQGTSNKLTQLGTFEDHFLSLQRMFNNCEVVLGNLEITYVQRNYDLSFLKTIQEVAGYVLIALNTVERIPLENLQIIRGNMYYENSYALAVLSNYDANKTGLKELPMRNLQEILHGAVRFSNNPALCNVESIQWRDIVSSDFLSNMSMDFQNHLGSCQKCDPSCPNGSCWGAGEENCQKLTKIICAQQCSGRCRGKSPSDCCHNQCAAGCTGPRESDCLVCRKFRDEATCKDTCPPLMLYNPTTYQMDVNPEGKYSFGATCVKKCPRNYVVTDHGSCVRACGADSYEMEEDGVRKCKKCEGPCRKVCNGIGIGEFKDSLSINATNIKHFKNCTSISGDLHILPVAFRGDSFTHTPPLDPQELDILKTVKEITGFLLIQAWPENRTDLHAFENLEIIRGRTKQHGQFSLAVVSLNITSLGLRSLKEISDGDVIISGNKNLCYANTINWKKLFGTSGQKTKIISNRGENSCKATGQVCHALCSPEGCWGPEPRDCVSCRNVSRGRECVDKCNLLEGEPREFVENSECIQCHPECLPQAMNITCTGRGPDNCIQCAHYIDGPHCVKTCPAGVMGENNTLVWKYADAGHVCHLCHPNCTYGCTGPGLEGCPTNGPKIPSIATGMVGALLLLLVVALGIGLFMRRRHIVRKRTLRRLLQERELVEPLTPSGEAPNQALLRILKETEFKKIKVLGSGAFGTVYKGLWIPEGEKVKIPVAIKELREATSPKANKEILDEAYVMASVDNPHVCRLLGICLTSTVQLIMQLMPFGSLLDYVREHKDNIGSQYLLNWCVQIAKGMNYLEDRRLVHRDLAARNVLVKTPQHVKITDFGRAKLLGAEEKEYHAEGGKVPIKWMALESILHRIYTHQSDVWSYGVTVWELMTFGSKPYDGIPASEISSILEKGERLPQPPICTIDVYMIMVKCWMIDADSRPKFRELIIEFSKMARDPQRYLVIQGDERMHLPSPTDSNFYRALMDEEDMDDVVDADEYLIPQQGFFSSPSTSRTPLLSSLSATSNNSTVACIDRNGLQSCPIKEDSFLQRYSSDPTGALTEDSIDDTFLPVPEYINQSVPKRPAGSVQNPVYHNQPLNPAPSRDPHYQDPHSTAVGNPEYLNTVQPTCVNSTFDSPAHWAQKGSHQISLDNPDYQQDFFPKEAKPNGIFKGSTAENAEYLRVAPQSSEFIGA
Structure (SMILES),"DC50 [1, 3]","Dmax [1, 4]","DC50 [2, 5]","Dmax (%) H1975 # 28 DTC [2, 6]","DC50 [1, 7]","Dmax [1, 8]","DC50 [2, 9]"
"CCc1ccc2c(P(C)(C)=O)c(Nc3nc(Nc4cc(CC)c(N5CCC(N6CCN(CCc7cc(C)cc8c7oc(=O)n8C7CCC(=O)NC7=O)CC6)CC5)cc4OC)ncc3Br)ccc2n1 (stereo not drawn) [Example 442, 3-(7-(2-(4-(1-(4-((5-bromo-4-((5-(dimethylphosphoryl)-2-ethylquinolin-6-yl)amino)pyrimidin-2-yl)amino)-2-ethyl-5-methoxyphenyl)piperidin-4-yl)piperazin-1-yl)ethyl)-5-methyl-2-oxobenzo[d]oxazol-3(2H)-yl)piperidine-2,6-dione]",6.53 nM,87%,1.05 nM,81.11%,–,–,–
"CCOc1cc(N2CCC(N3CCN(C(=O)[C@@H]4CCN(c5cccc6c5oc(=O)n6C5CCC(=O)NC5=O)C4)CC3)CC2)c(CC)cc1Nc1ncc(Br)c(Nc2ccc3nc(CC)ccc3c2P(C)(C)=O)n1 (stereo partly drawn) [Example 445, 3-(7-((R)-3-(4-(1-(4-((5-bromo-4-((5-(dimethylphosphoryl)-2-ethylquinolin-6-yl)amino)pyrimidin-2-yl)amino)-5-ethoxy-2-ethylphenyl)piperidin-4-yl)piperazine-1-carbonyl)pyrrolidin-1-yl)-2-oxobenzo[d]oxazol-3(2H)-yl)piperidine-2,6-dione]",–,–,–,79.2%,5.24 nM,87.7%,0.877 nM
"CCc1ccc2c(P(C)(C)=O)c(Nc3nc(Nc4cc(CC)c(N5CCC(N6CCN(C(=O)C7CN(c8cc(F)cc9c8oc(=O)n9C8CCC(=O)NC8=O)C7)CC6)CC5)cc4OC)ncc3Br)ccc2n1 (stereo not drawn) [Example 447, 3-(7-(3-(4-(1-(4-((5-bromo-4-((5-(dimethylphosphoryl)-2-ethylquinolin-6-yl)amino)pyrimidin-2-yl)amino)-2-ethyl-5-methoxyphenyl)piperidin-4-yl)piperazine-1-carbonyl)azetidin-1-yl)-5-fluoro-2-oxobenzo[d]oxazol-3(2H)-yl)piperidine-2,6-dione]",–,–,–,77.96%,2.27 nM,83.2%,0.526 nM
"CCc1ccc2c(P(C)(C)=O)c(Nc3nc(Nc4cc(CC)c(N5CCC(N6CCN(C(=O)C7CCN(c8cccc9c8oc(=O)n9C8CCC(=O)NC8=O)CC7)CC6)CC5)cc4OC)ncc3Br)ccc2n1 (stereo not drawn) [Example 450, 3-(7-(4-(4-(1-(4-((5-bromo-4-((5-(dimethylphosphoryl)-2-ethylquinolin-6-yl)amino)pyrimidin-2-yl)amino)-2-ethyl-5-methoxyphenyl)piperidin-4-yl)piperazine-1-carbonyl)piperidin-1-yl)-2-oxobenzo[d]oxazol-3(2H)-yl)piperidine-2,6-dione]",–,–,–,77%,2.68 nM,87.7%,0.616 nM
"CCc1cc(Nc2ncc(Br)c(Nc3ccc4nc(C)ccc4c3P(C)(C)=O)n2)c(OC2CC2)cc1N1CCC(N2CCN(CCc3cc(F)c([C@H]4CCC(=O)NC4=O)c(F)c3)CC2)CC1 [Example 459, (R)-3-(4-(2-(4-(1-(4-((5-bromo-4-((5-(dimethylphosphoryl)-2-methylquinolin-6-yl)amino)pyrimidin-2-yl)amino)-5-cyclopropoxy-2-ethylphenyl)piperidin-4-yl)piperazin-1-yl)ethyl)-2,6-difluorophenyl)piperidine-2,6-dione]",–,–,0.851 nM,86.08%,–,–,–

# Second part, led by results:
"DC50 [1, 3]","Dmax [1, 4]","DC50 [2, 5]",Structure (SMILES),"Dmax (%) H1975 # 28 DTC [2, 6]","DC50 [1, 7]","Dmax [1, 8]","DC50 [2, 9]"
3.36 nM,97.7%,0.751 nM,"CCc1cc(Nc2ncc(Br)c(Nc3ccc4nc(C)ccc4c3P(C)(C)=O)n2)c(OC)cc1N1CCC(N2CCN(C(=O)CC3CN(c4cc(F)c([C@H]5CCC(=O)NC5=O)c(F)c4)C3)CC2)CC1 (single isomer, unassigned) [Example 573]",81.91%,–,–,–
14.6 nM,81.4%,0.894 nM,"CCc1ccc2c(P(C)(C)=O)c(Nc3nc(Nc4cc(CC)c(N5CCC(N6CCN(CCc7cc(F)cc8c7oc(=O)n8C7CCC(=O)NC7=O)CC6)CC5)cc4OC)ncc3Br)ccc2n1 (stereo not drawn) [Example 443, 3-(7-(2-(4-(1-(4-((5-bromo-4-((5-(dimethylphosphoryl)-2-ethylquinolin-6-yl)amino)pyrimidin-2-yl)amino)-2-ethyl-5-methoxyphenyl)piperidin-4-yl)piperazin-1-yl)ethyl)-5-fluoro-2-oxobenzo[d]oxazol-3(2H)-yl)piperidine-2,6-dione]",82.38%,–,–,–
6.28 nM,79.4%,1.19 nM,"CCc1ccc2c(P(C)(C)=O)c(Nc3nc(Nc4cc(CC)c(N5CCC(N6CCN(CCc7c(F)ccc8c7oc(=O)n8C7CCC(=O)NC7=O)CC6)CC5)cc4OC)ncc3Br)ccc2n1 (stereo not drawn) [Example 444, 3-(7-(2-(4-(1-(4-((5-bromo-4-((5-(dimethylphosphoryl)-2-ethylquinolin-6-yl)amino)pyrimidin-2-yl)amino)-2-ethyl-5-methoxyphenyl)piperidin-4-yl)piperazin-1-yl)ethyl)-6-fluoro-2-oxobenzo[d]oxazol-3(2H)-yl)piperidine-2,6-dione]",79.58%,–,–,–
6.92 nM,89.5%,0.962 nM,"CCc1ccc2c(P(C)(C)=O)c(Nc3nc(Nc4cc(CC)c(N5CCC(N6CCN(CC7CN(c8cccc9c8oc(=O)n9C8CCC(=O)NC8=O)C7)CC6)CC5)cc4OC)ncc3Br)ccc2n1 (stereo not drawn) [Example 448, 3-(7-(3-((4-(1-(4-((5-bromo-4-((5-(dimethylphosphoryl)-2-ethylquinolin-6-yl)amino)pyrimidin-2-yl)amino)-2-ethyl-5-methoxyphenyl)piperidin-4-yl)piperazin-1-yl)methyl)azetidin-1-yl)-2-oxobenzo[d]oxazol-3(2H)-yl)piperidine-2,6-dione]",83.19%,–,–,–
2.99 nM,89.9%,0.937 nM,"CCc1ccc2c(P(C)(C)=O)c(Nc3nc(Nc4cc(CC)c(N5CCC(N6CCN(CC7CN(c8cc(F)cc9c8oc(=O)n9C8CCC(=O)NC8=O)C7)CC6)CC5)cc4OC)ncc3Br)ccc2n1 (stereo not drawn) [Example 449, 3-(7-(3-((4-(1-(4-((5-bromo-4-((5-(dimethylphosphoryl)-2-ethylquinolin-6-yl)amino)pyrimidin-2-yl)amino)-2-ethyl-5-methoxyphenyl)piperidin-4-yl)piperazin-1-yl)methyl)azetidin-1-yl)-5-fluoro-2-oxobenzo[d]oxazol-3(2H)-yl)piperidine-2,6-dione]",85.59%,–,–,–
–,86.5%,–,"CCc1cc(Nc2ncc(Br)c(Nc3ccc4nc(C)ccc4c3P(C)(C)=O)n2)c(OC)cc1N1CCC(N2CCN(C(=O)[C@@H]3CCN(c4ccc([C@H]5CCC(=O)NC5=O)cc4)C3)CC2)CC1 [Example 569, (R)-3-(4-((R)-3-(4-(1-(4-((5-bromo-4-((5-(dimethylphosphoryl)-2-methylquinolin-6-yl)amino)pyrimidin-2-yl)amino)-2-ethyl-5-methoxyphenyl)piperidin-4-yl)piperazine-1-carbonyl)pyrrolidin-1-yl)phenyl)piperidine-2,6-dione]",–,–,–,–
